According to patent US11881606B2, “Conductive materials to drive bacterial carbon dioxide fixation” (The Government of the United States of America, as …, priority 2019, dated 2024):
Where “and” joins values, the source holds several entries; their conditions need not be identical. Equal entries are not always repeated.

Assays:
[1] = tested on: Biocathode MCL; assay: Effect of antibiotics and cyanide on the open circuit potential (OCP) of electrodes with Biocathode MCL biofilm; assay type: cell-based
Method: FIGS. 3A and 3B illustrate the effect of the addition of antibiotics on the open circuit potential (OCP). […]
(§1) Biocathode MCL was cultivated in artificial seawater (ASW) medium containing 27.50 g NaCl, 3.80 g MgCl2·6H2O, 6.78 g MgSO4·H2O, 0.72 g KCl, 0.62 g NaHCO3, 5.58 g CaCl2·H2O, 1.00 g NH4Cl, 0.05 g K2HPO4, and 1 ml Wolfe's Trace Mineral Solution per liter. The NaHCO3 was autoclaved in a separate sealed bottle and added after cooling to avoid precipitation. The medium was adjusted to a pH between 6.5 and 6.8 by briefly bubbling with 100% CO2. Source cultures were continuously maintained in 2 liter, 3-electrode reactors with carbon cloth as working and counter electrodes. The working electrode was poised at 0.310 V SHE (standard hydrogen electrode).
(§2) For these experiments, bioelectrochemical systems (BES) were 175 ml glass electrochemical reactors (Pine Instruments, Grove City, Pa.). Working electrodes were either 10.5 cm^2 graphite flags (Tri-Gemini, Hillside, Ill.) or carbon cloth (Fuel Cell Earth, Woburn, Mass.) cut to roughly 3.5×1.5 cm for an area of 10.5 cm^2. Counter electrodes were carbon cloth electrodes cut to approximately 3.5×1.5 cm. Graphite flags were sanded down prior to cleaning. Both carbon cloth and graphite flag electrodes were soaked overnight in 1 M hydrochloric acid, then rinsed and soaked overnight in ultrapure deionized water (MilliQ, Millipore-Sigma, Burlington, Mass.). Electrodes were suspended in the reactors from titanium wires, attached by titanium screws. The reference electrodes for the experiments were 3 M KCl Ag/AgCl (BASI, West Lafayette, Ind.) washed in bleach and rinsed in sterile ultrapure deionized water. All potentials are reported here as vs. SHE by adding 0.21V to the experimental potentials vs. Ag/AgCl.
Once assembled, the BES were maintained at 30° C. using water jackets and stirred using small stir bars and stir plates (VWR, Radnor, Pa., USA). The electrodes were connected to a multichannel potentiostat (Biologic, Seyssinet-Pariset, France), which was used to record cyclic voltammograms at fast (20 mV/S) and slow (0.2 mV/S) scan rates, and then to monitor the OCP or, for experiments with set potential, to hold the potential at 0.310 V and monitor current production. After the signal stabilized, the reactors were inoculated with 1 ml of initial inoculum diluted 10^−3 or 10^−4-fold. Based on the cell counts of filtered inoculum, reactors in experiment 1 were inoculated with ca. 30 or ca. 300 cells, while reactors in experiment 2 were inoculated with ca. 110 or ca. 1100 cells and reactors in experiment 3 were inoculated with 700 cells.
The effect of antibiotics on the open circuit potential was examined in order to determine whether the maintenance of the OCP was dependent on metabolically active cells. Because ampicillin kills only dividing cells (by interfering with cell wall formation^21), while kanamycin kills by interfering with translation machinery (killing bacteria that are actively manufacturing proteins^21), these antibiotics were used to determine the rough metabolic state of the cells.
To test how long the cells remained active and sensitive to antibiotics, reactors were incubated for 26 days before antibiotic additions. The inoculated reactors maintained an OCP close to 0.50 V vs. SHE during the 26-day incubation. […] Cyanide, which inhibits cytochrome function, caused an immediate drop in potential in both old and young reactors (FIGS. 3A and 3B).

[2] = tested on: Biocathode MCL; assay: Current production by Biocathode MCL on electrode set at 0.310 V with antibiotics; assay type: cell-based; settings: ampicillin at 100 μg/ml; electrode potential set at 0.310 V
Method: as §1
as §2, with “The reference electrodes for the experiments were 3 M KCl Ag/AgCl (BASI, West Lafayette, Ind.) washed in bleach and rinsed in sterile ultrapure deionized water. All potentials are reported here as vs. SHE by adding 0.21V to the experimental potentials vs. Ag/AgCl.” left out

[3] = added 10 days after inoculation

Structure (SMILES): CC1(C)S[C@@H]2[C@H](NC(=O)[C@H](N)c3ccccc3)C(=O)N2[C@H]1C(=O)O [ampicillin]
- OCP at end of drop [1, 3]: return to its pre-inoculation level
- Time until OCP began dropping [1, 3]: 2 to 3 days
- Time until OCP reduction began ([1]; added 26 days after inoculation): two
- Effect on OCP ([1]; added 26 days after inoculation, followed for two weeks): not returning to the abiotic OCP even after two weeks
- Current production [2]: inhibited

Structure (SMILES): NC[C@H]1O[C@H](O[C@H]2[C@H](O)[C@@H](O[C@H]3O[C@H](CO)[C@@H](O)[C@H](N)[C@H]3O)[C@H](N)C[C@@H]2N)[C@H](O)[C@@H](O)[C@@H]1O [kanamycin]
- Time until drop in OCP began ([1]; added 10 days after inoculation, two experiments): 13 h and 10 h
